Test results: ChEMBL document CHEMBL1765084, “Pyrimidine-2,4,6-trione derivatives and their inhibition of mutant SOD1-dependent protein aggregation. Toward a treatment for amyotrophic lateral sclerosis” (J Med Chem, 2011)
Converted amounts (≈) assume the structure as drawn. The source made the active and inactive calls. The calls are words filed in the database; no cut-off is given here.

Key:
PC-12 [1] = assay: Cytoprotection against SOD1 G93A mutant induced cytotoxicity in rat PC12 cells assessed as reduction of protein aggregates by fluorescent assay; type: functional, cell-based
[2] = Solubility of the compound in PBS buffer after 16 hrs
Liver microsomes = assay: Half life of the compound in human liver microsomes
Liver = assay: Half life of the compound in B6SJL mouse liver microsome; details: microsomes
Plasma [3] = assay: Half life in B6SJL mouse plasma by LC-MS/MS analysis
Caco-2 [4] = assay: Apparent Permeability across basolateral to apical side in human Caco2 cells at 50 uM after 2 hrs; details: caco-2, 2 h
Caco-2 [5] = assay: Apparent Permeability across apical side to basolateral side in human Caco2 cells at 50 uM after 2 hrs; details: caco-2, 2 h
[6] = Ratio of permeability from basolateral to apical side over apical to basolateral side in human Caco2 cells; details: Caco-2
Cytochrome P450 2C9 = Cytochrome P450 2C9 (Homo sapiens, UniProt P11712); assay: Inhibition of CYP2C9 in human liver microsomes
Chain of Cytochrome P450 2C9 (P11712 whole entry): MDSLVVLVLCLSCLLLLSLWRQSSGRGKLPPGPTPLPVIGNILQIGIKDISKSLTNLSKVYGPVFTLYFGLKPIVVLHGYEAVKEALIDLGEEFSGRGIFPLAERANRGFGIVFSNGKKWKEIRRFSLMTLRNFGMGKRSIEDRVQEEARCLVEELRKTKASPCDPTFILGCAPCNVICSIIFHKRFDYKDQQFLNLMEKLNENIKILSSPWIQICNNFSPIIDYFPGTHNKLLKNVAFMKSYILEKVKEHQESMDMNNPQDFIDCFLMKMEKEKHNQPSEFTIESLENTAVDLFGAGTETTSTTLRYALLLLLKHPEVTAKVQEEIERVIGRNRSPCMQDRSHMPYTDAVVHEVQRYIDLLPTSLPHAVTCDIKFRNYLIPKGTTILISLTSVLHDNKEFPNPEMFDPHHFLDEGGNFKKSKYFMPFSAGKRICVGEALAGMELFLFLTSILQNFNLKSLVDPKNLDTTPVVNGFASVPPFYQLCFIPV

Cytochrome P450 2C19 = Cytochrome P450 2C19 (Homo sapiens, UniProt P33261); assay: Inhibition of CYP2C19 in human liver microsomes
Chain of Cytochrome P450 2C19 (P33261 whole entry): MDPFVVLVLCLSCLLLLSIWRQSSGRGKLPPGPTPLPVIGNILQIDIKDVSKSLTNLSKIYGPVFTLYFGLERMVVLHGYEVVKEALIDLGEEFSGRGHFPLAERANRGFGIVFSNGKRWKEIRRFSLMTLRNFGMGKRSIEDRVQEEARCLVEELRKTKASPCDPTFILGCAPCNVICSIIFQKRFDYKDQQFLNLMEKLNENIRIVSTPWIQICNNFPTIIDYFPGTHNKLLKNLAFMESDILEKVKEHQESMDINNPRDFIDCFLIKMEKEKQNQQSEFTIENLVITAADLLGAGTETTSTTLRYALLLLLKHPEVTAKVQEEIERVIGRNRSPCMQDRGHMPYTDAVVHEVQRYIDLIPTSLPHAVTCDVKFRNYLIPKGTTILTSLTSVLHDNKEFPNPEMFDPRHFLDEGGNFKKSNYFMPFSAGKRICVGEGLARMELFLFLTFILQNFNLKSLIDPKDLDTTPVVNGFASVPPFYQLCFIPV

Cytochrome P450 2D6 = Cytochrome P450 2D6 (Homo sapiens, UniProt P10635); assay: Inhibition of CYP2D6 in human liver microsomes; type: ADME, Microsome
Chain of Cytochrome P450 2D6 (P10635 whole entry): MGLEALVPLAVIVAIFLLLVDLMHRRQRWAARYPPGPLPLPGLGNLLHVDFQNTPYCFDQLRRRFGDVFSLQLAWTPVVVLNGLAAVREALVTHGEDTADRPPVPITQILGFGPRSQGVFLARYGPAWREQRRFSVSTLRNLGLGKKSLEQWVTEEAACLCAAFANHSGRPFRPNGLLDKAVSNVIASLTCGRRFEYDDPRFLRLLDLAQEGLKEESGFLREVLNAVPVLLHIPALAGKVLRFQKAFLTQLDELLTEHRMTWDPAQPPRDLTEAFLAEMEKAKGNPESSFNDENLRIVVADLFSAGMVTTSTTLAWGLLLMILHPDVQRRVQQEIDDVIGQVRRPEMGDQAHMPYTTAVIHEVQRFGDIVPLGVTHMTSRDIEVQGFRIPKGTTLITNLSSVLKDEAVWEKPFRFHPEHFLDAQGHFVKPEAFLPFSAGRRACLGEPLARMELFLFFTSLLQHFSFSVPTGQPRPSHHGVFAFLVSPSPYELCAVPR

Cytochrome P450 3A4 = Cytochrome P450 3A4 (Homo sapiens, UniProt P08684); assay: Inhibition of CYP3A4 in human liver microsomes; type: ADME, Microsome
Chain of Cytochrome P450 3A4 (P08684 whole entry): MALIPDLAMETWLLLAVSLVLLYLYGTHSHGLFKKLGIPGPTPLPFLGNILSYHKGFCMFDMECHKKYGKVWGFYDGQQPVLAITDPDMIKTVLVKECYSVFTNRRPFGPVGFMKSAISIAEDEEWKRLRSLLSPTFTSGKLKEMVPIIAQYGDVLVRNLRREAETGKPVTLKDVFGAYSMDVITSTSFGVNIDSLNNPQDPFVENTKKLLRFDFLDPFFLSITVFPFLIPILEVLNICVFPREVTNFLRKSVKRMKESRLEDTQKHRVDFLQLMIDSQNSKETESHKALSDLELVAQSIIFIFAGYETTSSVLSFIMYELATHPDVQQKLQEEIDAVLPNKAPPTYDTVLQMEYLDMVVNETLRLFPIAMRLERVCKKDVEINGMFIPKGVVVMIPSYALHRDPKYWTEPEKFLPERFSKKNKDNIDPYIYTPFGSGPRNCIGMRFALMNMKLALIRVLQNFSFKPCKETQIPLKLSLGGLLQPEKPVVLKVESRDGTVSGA

Plasma [7] = assay: Plasma protein binding in rat at 2 uM; type: ADME, cell-free
Plasma [8] = assay: Plasma protein binding in human at 2 uM; type: ADME, cell-free
PC-12 [9] = assay: Cytoprotection against SOD1 G93A mutant induced cytotoxicity in rat PC12 cells assessed as reduction of protein aggregates at 1 uM by fluorescent assay; type: functional, cell-based
PC-12 [10] = assay: Cytoprotection against SOD1 G93A mutant induced cytotoxicity in rat PC12 cells assessed as reduction of protein aggregates at 10 uM by fluorescent assay in presence of proteasome inhibitor MG132; type: functional, cell-based
[11] = target: D(3) dopamine receptor (Homo sapiens) (UniProt P35462); assay: Inhibition of dopamine D3 receptor at 10 uM by radioligand binding assay
Chain of D(3) dopamine receptor (Homo sapiens) (P35462 whole entry): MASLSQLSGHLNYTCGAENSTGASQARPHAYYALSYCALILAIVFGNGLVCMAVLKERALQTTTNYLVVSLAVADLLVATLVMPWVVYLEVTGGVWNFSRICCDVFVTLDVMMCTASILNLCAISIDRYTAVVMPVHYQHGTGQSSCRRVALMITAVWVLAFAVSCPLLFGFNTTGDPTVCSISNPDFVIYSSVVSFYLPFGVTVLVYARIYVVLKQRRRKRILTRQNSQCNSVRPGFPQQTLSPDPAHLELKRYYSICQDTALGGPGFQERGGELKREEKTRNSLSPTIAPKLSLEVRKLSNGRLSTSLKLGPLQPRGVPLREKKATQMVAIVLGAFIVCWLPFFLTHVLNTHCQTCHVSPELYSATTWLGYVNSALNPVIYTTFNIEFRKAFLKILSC

[12] = target: T1, Estrogen receptor (Homo sapiens) (UniProt P03372); assay: Inhibition of ER alpha receptor at 10 uM by radioligand binding assay
T1 sequence (whole entry): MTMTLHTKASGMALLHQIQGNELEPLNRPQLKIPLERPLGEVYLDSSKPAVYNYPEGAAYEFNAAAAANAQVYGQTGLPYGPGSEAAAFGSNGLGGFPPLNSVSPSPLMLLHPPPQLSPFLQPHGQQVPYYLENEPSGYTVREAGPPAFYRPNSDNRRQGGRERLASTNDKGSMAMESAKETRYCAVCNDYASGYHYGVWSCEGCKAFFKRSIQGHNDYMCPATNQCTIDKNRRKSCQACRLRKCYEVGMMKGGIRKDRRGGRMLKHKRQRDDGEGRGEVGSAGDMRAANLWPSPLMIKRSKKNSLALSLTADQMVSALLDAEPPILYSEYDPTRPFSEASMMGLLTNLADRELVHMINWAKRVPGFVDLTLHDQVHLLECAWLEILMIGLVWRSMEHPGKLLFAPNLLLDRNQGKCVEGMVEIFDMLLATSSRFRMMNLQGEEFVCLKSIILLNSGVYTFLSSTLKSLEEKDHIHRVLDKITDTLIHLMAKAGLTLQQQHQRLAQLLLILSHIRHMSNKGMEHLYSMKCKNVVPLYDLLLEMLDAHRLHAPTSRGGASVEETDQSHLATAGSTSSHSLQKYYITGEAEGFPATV

[13] = Inhibition of GABA transporter at 10 uM by radioligand binding assay
[14] = Inhibition of sodium channel site 2 at 10 uM by radioligand binding assay
Cytochrome P450 1A2 = target: T2, Cytochrome P450 1A2 (Homo sapiens, UniProt P05177); assay: Inhibition of CYP1A2 in human liver microsomes
T2 sequence (P05177 whole entry): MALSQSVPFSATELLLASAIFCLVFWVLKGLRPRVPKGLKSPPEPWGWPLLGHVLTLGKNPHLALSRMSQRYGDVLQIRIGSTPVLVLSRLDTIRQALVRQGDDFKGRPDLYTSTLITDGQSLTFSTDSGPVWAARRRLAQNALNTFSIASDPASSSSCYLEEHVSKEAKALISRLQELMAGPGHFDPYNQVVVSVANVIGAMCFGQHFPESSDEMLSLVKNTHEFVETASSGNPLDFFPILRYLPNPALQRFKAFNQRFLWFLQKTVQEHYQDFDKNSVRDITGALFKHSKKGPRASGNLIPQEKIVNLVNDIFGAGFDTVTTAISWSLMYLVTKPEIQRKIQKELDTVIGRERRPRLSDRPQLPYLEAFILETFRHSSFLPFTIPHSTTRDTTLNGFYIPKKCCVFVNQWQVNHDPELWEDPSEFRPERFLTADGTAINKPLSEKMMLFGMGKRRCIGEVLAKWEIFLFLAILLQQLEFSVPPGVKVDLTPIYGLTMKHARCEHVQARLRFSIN

PC-12 [15] = assay: Cytoprotection against SOD1 G93A mutant induced cytotoxicity in rat PC12 cells after 24 hrs by fluorescent assay; type: functional, cell-based
Rattus norvegicus [16] = assay: Oral bioavailability in Sprague-Dawley rat at 1 mg/kg; type: ADME, organism-based; details: in vivo
Rattus norvegicus [17] = assay: Tmax in Sprague-Dawley rat at 1 mg/kg, po; type: ADME, organism-based; set-up: dose 1 mg/kg, route oral; details: in vivo
Rattus norvegicus [18] = assay: Volume of distribution at steady state in Sprague-Dawley rat at 1 mg/kg, iv; type: ADME, organism-based; set-up: dose 1 mg/kg, route intravenous; details: in vivo
Rattus norvegicus [19] = assay: Cmax in Sprague-Dawley rat at 1 mg/kg, po; type: ADME, organism-based; set-up: dose 1 mg/kg, route oral; details: in vivo
Rattus norvegicus [20] = assay: Half life in Sprague-Dawley rat at 1 mg/kg, iv; type: ADME, organism-based; set-up: dose 1 mg/kg, route intravenous; details: in vivo
Rattus norvegicus [21] = assay: Half life in Sprague-Dawley rat at 1 mg/kg, po; type: ADME, organism-based; set-up: dose 1 mg/kg, route oral; details: in vivo
Rattus norvegicus [22] = assay: AUC/dose in Sprague-Dawley rat at 1 mg/kg, po; type: ADME, organism-based, Plasma; set-up: dose 1 mg/kg, route oral; details: in vivo
Rattus norvegicus [23] = assay: AUC/dose in Sprague-Dawley rat at 1 mg/kg, iv; type: ADME, organism-based, Plasma; set-up: dose 1 mg/kg, route intravenous; details: in vivo
Rattus norvegicus [24] = assay: AUC last in Sprague-Dawley rat at 1 mg/kg, iv; type: ADME, organism-based, Plasma; set-up: time 0 - last, dose 1 mg/kg, route intravenous; details: in vivo
hERG (KCNH2) = hERG (KCNH2) (Homo sapiens, UniProt Q12809); assay: Inhibition of human ERG in cells at 10 uM by patch clamp assay relative to control; details: cells expressing human ERG
Chain of hERG (KCNH2) (Q12809 whole entry): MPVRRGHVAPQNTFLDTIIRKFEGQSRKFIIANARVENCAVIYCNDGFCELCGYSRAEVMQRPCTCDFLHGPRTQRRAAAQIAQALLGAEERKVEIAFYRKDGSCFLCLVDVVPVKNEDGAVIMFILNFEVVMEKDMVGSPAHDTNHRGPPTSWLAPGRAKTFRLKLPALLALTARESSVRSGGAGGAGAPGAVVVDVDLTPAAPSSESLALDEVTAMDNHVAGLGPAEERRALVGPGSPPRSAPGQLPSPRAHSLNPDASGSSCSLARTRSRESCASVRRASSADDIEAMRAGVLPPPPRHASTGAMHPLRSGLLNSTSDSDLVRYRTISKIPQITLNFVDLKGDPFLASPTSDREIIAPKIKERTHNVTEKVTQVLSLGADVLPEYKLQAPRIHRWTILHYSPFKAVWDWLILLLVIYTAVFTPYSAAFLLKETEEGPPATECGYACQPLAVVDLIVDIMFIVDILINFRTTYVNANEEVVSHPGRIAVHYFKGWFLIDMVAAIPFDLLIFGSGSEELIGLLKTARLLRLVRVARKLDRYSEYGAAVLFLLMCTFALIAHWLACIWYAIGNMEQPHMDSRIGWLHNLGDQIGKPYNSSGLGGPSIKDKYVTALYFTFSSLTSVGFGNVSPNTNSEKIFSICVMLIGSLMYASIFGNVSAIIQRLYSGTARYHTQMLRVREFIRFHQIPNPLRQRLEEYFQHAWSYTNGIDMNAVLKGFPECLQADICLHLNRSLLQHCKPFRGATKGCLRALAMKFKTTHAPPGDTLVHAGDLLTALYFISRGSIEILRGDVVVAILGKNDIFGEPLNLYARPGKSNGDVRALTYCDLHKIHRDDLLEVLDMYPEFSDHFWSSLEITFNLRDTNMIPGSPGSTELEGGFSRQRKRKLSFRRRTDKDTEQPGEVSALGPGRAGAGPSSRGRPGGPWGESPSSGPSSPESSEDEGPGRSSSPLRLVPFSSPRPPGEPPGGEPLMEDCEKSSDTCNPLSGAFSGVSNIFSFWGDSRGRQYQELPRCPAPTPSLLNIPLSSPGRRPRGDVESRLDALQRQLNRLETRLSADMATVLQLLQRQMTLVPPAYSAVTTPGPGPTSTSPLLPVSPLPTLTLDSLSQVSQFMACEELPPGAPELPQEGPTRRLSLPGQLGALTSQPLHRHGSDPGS

## CCCCCCCCN1C(=O)CC(=O)N(CCc2ccccc2)C1=O
PC-12 [1]
  EC50: 0.71 µM

## O=C1CC(=O)N(CC(c2ccccc2)c2ccccc2)C(=O)N1CCCCc1ccccc1
PC-12 [1]
  EC50: 3.61 µM

## O=C1CC(=O)N(CCC(c2ccccc2)c2ccccc2)C(=O)N1CCC(c1ccccc1)c1ccccc1
PC-12 [1]
  EC50: 1.39 µM

## O=C1CC(=O)N(CCc2ccccc2F)C(=O)N1CCc1ccccc1F
PC-12 [1]
  EC50: 3.29 µM

## O=C1C(=Cc2ccc(OCc3ccccc3)cc2)C(=O)N(CCc2ccccc2)C(=O)N1CCc1ccccc1
PC-12 [1]
  EC50: 2.84 µM

## O=C1NC(=O)N(C2CCCCC2)C1=O
PC-12 [1]
  EC50: > 32 µM

## O=C1CC(=O)N(C2CCCCC2)C(=O)N1
PC-12 [1]
  EC50: > 32 µM

## O=C1C(=Cc2ccc[nH]2)C(=O)N(CCc2ccccc2)C(=O)N1CCc1ccccc1
PC-12 [1]
  EC50: 3.55 µM

## O=C1C(=Cc2c(Cl)cccc2Cl)C(=O)N(CCc2ccccc2)C(=O)N1CCc1ccccc1
PC-12 [1]
  EC50: 3.1 µM

## COc1ccc(CCN2C(=O)CC(=O)N(CCc3ccc(OC)cc3)C2=O)cc1
PC-12 [1]
  EC50: 3.36 µM

## O=C1CC(=O)N(CCc2ccc(Cl)cc2)C(=O)N1CCc1ccc(Cl)cc1
PC-12 [1]
  EC50: 3.26 µM

## O=C1CC(=O)N(Cc2ccccc2)C(=O)N1Cc1ccccc1
PC-12 [1]
  EC50: 4.58 µM

## O=C1C(=CC2CCCCC2)C(=O)N(CCc2ccccc2)C(=O)N1CCc1ccccc1
PC-12 [1]
  EC50: > 32 µM

## O=C1CC(=O)N(CCc2ccccc2)C(=O)N1CCCc1ccccc1
PC-12 [1]
  EC50: 1.88 µM

## O=C1CC(=O)N(CCN2CCOCC2)C(=O)N1CCc1ccc(F)cc1
PC-12 [1]
  EC50: > 32 µM

## O=C1CC(=O)N(CCc2cccs2)C(=O)N1CCc1ccc(F)cc1
PC-12 [1]
  EC50: 2.16 µM

## CC1C(=O)N(CCc2ccccc2)C(=O)N(CCc2ccccc2)C1=O
PC-12 [1]
  EC50: > 32 µM

## O=C1CC(=O)N(CCCCc2ccccc2)C(=O)N1CCCCc1ccccc1
[2]
  solubility: 105 µM (≈ 41.2 µg/mL)
Liver microsomes
  t1/2: 15 min
Liver
  t1/2: 11 min
PC-12 [1]
  EC50: 0.68 µM
Plasma [3]
  t1/2: 21.8 min
Caco-2 [4]
  Papp: 30.2 ×10⁻⁶ cm/s
Caco-2 [5]
  Papp: 9.2 ×10⁻⁶ cm/s
[6]
  efflux ratio: 3.3

## O=C1CC(=O)N(CCc2cccs2)C(=O)N1CCc1cccs1
PC-12 [1]
  EC50: 2.16 µM

## O=C1CC(=O)N(CCOc2ccccc2)C(=O)N1CCOc1ccccc1
PC-12 [1]
  EC50: 3.26 µM

## CCCN1C(=O)CC(=O)N(CCC)C1=O
PC-12 [1]
  EC50: 7.68 µM

## O=C1CC(=O)N(CCc2ccc(F)cc2)C(=O)N1CCOc1ccccc1
PC-12 [1]
  EC50: 1.32 µM

## O=C1CC(=O)N(CCc2ccccc2)C(=O)N1CCc1ccccc1
Cytochrome P450 2C9
  IC50: > 50 µM
Cytochrome P450 2C19
  IC50: > 50 µM
Cytochrome P450 2D6
  IC50: > 50 µM
Cytochrome P450 3A4
  IC50: > 50 µM
Plasma [7]
  PPB: 95%
Plasma [8]
  PPB: 90%
Liver microsomes
  t1/2: 61 min
Liver
  t1/2: 39 min
PC-12 [9]
  Activity: Dose-dependent effect
PC-12 [10]
  Activity: Active
PC-12 [1]
  EC50: 1.68 µM
Plasma [3]
  t1/2: 60.5 min
[11]
  inhibition: 41%
[12]
  inhibition: 20%
[13]
  inhibition: 19%
[14]
  inhibition: 21%
Cytochrome P450 1A2
  IC50: > 50 µM
PC-12 [15]
  Activity: Dose-dependent effect
Rattus norvegicus [16]
  F: 98%
Rattus norvegicus [17]
  Tmax: 45 min
Rattus norvegicus [18]
  Vdss: 9 L/kg
Rattus norvegicus [19]
  Cmax: 55 ng/mL
Rattus norvegicus [20]
  t1/2: 57 min
Rattus norvegicus [21]
  t1/2: 84 min
Rattus norvegicus [22]
  AUC/dose: 124 ng·h/mL
Rattus norvegicus [23]
  AUC/dose: 126 ng·h/mL
Rattus norvegicus [24]
  AUClast: 121 ng·h/mL
hERG (KCNH2)
  inhibition at 10 µM: 4.9%
Caco-2 [4]
  Papp: 26 ×10⁻⁶ cm/s

## O=C1CC(=O)N(C2CCCCC2)C(=O)N1C1CCCCC1
PC-12 [1]
  EC50: 2.97 µM

## COc1cc(=O)n(CCc2ccccc2)c(=O)n1CCc1ccccc1
PC-12 [1]
  EC50: > 32 µM
